Laboratory results as given in patent US10059674B2, “Design, synthesis, and biological evaluation of 1-methyl-1, 4-dihyrdoindeno[1,2-C]pyrazole analogues as potential anticaner agents targeting tubulin colchicine binding site” (ACT PHARMA CO., LTD., priority 2016, dated 2018).
Where two headings read alike, the source gives them in different places.

Experiments:
[1] = In vivo pharmacokinetic test, drug concentration in blood plasma by LC-MS/MS; set-up: species or system SD rats; details: for Drug concentration in blood plasma / concentration at 0.25 h / concentration at 0.5 h / concentration at 1 h / concentration at 8 h / concentration at 24 h / concentration at 0.08 h / concentration at 2 h / concentration at 4 h: SD rats; for Drug concentration in blood plasma / concentration at 24 h: 24 h; for concentration at 0.25 h / concentration at 0.5 h / concentration at 1 h / concentration at 8 h / concentration at 24 h / concentration at 0.08 h / concentration at 2 h / concentration at 4 h / AUC(0-t) / Cmax / AUC(0-inf) / clearance / MRT inf / Vd / Vd/F: SD; for concentration at 0.25 h / concentration at 0.5 h / concentration at 1 h / concentration at 8 h / concentration at 24 h / concentration at 0.08 h / concentration at 2 h / concentration at 4 h / AUC(0-t) / Cmax / AUC(0-inf) / clearance / MRT inf / Vd / Vd/F / Tmax: rat, plasma; for HL_Lambda_z / Cl—F—pred / F / AUC(0-t) / Cmax / AUC(0-inf) / clearance / MRT inf / Vd / Vd/F / Tmax: male SD rats; for AUC(0-inf): read-out: AUCINF—pred; for clearance: read-out: Cl—pred (converted); for MRT inf: read-out: MRTINF—pred; for Vd: read-out: Vz—pred; for Vd/F: read-out: Vz—F—pred
Protocol: 2. Test animal: SD rats, which are 284-304 g before the test, and bought from Shanghai Xipuer-Bikai laboratory animal Co., Ltd. with production license No. SCXK (Hu) 2013-0016, and laboratory animal certificate Nos. 2008001658223 and 2008001658296.
2.85 mg of compound LL-01 is weighed, and then put into a glass bottle; 0.687 mL of DMSO is added into the glass bottle, and ultrasonic treatment is carried out for 2 min; next, 2.062 mL of Solutol HS 15 is added thereto, and ultrasonic treatment is carried out for 4 min; and then 10.995 mL of PBS is added thereto, and ultrasonic treatment is carried out for 8 min after eddying. This test substance is numbered 20160324-RW-01, 12.74 mg of compound LL-01 is weighed, and then put into a glass bottle; 0.614 mL of DMSO is added into the glass bottle, and ultrasonic treatment is carried out for 2 min; next, 1.843 mL of Solutol HS 15 is added thereto, and ultrasonic treatment is carried out for 4 min; and then 9.830 mL of PBS is added thereto, and ultrasonic treatment is carried out for 8 min after eddying. This test substance is numbered 20160324-RW-02,
The dosage of intravenous administration is 1 mg/kg, while the dosage of oral administration is 10 mg/kg. A night of fasting is required before administration, and feeding should be carried out 4 hours later after administration.
Blood is collected (about 150-200 uL) at every time points of 0.083 (only vein), 0.25, 0.5, 1, 2, 4, 8, and 24 hours after administration through orbital venous plexus puncture into EDTA-K2 (20%, and 2 μL) anticoagulant tubes, respectively; the blood samples are centrifuged 8 min at 6000 rpm in 1 h (placed on wet ice before being centrifuged), and the supernatant, namely blood plasma is put into −20° C. low-temperature conservation for LC-MS/MS analysis later.
The content of compound LL-01 in SD rat blood plasma is detected by use of LC-MS/MS method.
Computer program Microsoft Office Excel 2007 (Microsoft, USA) is used for data processing, and drawing. A statistical moment method of WinNolin 6.4 processing software is used to calculate pharmacokinetic parameters.

[2] = in vitro; details: human, microsomes, pH 7.47
[3] = in vitro; details: dog, microsomes, pH 7.47
[4] = po, 10 mg/kg, oral 10 mg/kg, Mean
[5] = po, 10 mg/kg, oral 10 mg/kg, animal 201M
[6] = po, 10 mg/kg, oral 10 mg/kg, animal 202M
[7] = po, 10 mg/kg, oral 10 mg/kg, animal 203M
[8] = single intravenous 1 mg/kg, animal 101M
[9] = single oral 10 mg/kg, animal 201M
[10] = single oral 10 mg/kg, animal 202M
[11] = single oral 10 mg/kg, animal 203M
[12] = male, iv, 1 mg/kg, intravenous 1 mg/kg, Mean
[13] = male, iv, 1 mg/kg, intravenous 1 mg/kg, animal 101M
[14] = male, iv, 1 mg/kg, intravenous 1 mg/kg, animal 102M
[15] = male, iv, 1 mg/kg, intravenous 1 mg/kg, animal 103M
[16] = male, iv, 1 mg/kg, single intravenous 1 mg/kg, Mean
[17] = male, iv, 1 mg/kg, single intravenous 1 mg/kg, animal 101M
[18] = male, iv, 1 mg/kg, single intravenous 1 mg/kg, animal 102M
[19] = male, iv, 1 mg/kg, single intravenous 1 mg/kg, animal 103M
[20] = male, po, 10 mg/kg, oral 10 mg/kg, Mean
[21] = male, po, 10 mg/kg, oral 10 mg/kg, animal 201M
[22] = male, po, 10 mg/kg, oral 10 mg/kg, animal 202M
[23] = male, po, 10 mg/kg, oral 10 mg/kg, animal 203M
[24] = male, po, 10 mg/kg, single oral 10 mg/kg, Mean
[25] = male, po, 10 mg/kg, single oral 10 mg/kg, animal 201M
[26] = male, po, 10 mg/kg, single oral 10 mg/kg, animal 202M
[27] = male, po, 10 mg/kg, single oral 10 mg/kg, animal 203M

CCOc1cccc(Nc2nn(C)c3c2Cc2cc(OCC)c(OCC(N)=O)cc2-3)c1 [LL-01]
Drug concentration in blood plasma ([1]; intravenous 1 mg/kg, animal 101M): BLQ
Drug concentration in blood plasma ([1]; intravenous 1 mg/kg, animal 102M): BLQ
Drug concentration in blood plasma ([1]; intravenous 1 mg/kg, animal 103M): BLQ
concentration at 0.25 h [1, 4]: 280 ng/mL
concentration at 0.25 h [1, 5]: 159 ng/mL
concentration at 0.25 h [1, 6]: 466 ng/mL
concentration at 0.25 h [1, 7]: 216 ng/mL
concentration at 0.5 h [1, 4]: 558 ng/mL
concentration at 0.5 h [1, 5]: 374 ng/mL
concentration at 0.5 h [1, 6]: 959 ng/mL
concentration at 0.5 h [1, 7]: 339 ng/mL
concentration at 1 h [1, 4]: 917 ng/mL
concentration at 1 h [1, 5]: 869 ng/mL
concentration at 1 h [1, 6]: 1100 ng/mL
concentration at 1 h [1, 7]: 778 ng/mL
concentration at 8 h [1, 4]: 604 ng/mL
concentration at 8 h [1, 6]: 916 ng/mL
concentration at 8 h [1, 7]: 446 ng/mL
concentration at 24 h [1, 4]: 26.9 ng/mL
concentration at 24 h [1, 5]: 46.8 ng/mL
concentration at 24 h [1, 6]: 17.4 ng/mL
concentration at 24 h [1, 7]: 16.6 ng/mL
HL_Lambda_z ([1]; single intravenous 1 mg/kg, Mean): 1.00 h
HL_Lambda_z [1, 8]: 1.06 h
HL_Lambda_z ([1]; single intravenous 1 mg/kg, animal 102M): 1.00 h
HL_Lambda_z ([1]; single intravenous 1 mg/kg, animal 103M): 0.94 h
Cl—F—pred ([1]; single oral 10 mg/kg, Mean): 14.3 mL/min/kg
F ([1]; single oral 10 mg/kg, Mean): 41.02%
HL_Lambda_z ([1]; single oral 10 mg/kg, Mean): 3.60 h
Cl—F—pred [1, 9]: 15.2 mL/min/kg
F [1, 9]: 35.12%
HL_Lambda_z [1, 9]: 4.35 h
Cl—F—pred [1, 10]: 9.33 mL/min/kg
F [1, 10]: 58.28%
HL_Lambda_z [1, 10]: 2.95 h
Cl—F—pred [1, 11]: 18.3 mL/min/kg
F [1, 11]: 29.66%
HL_Lambda_z [1, 11]: 3.50 h
concentration at 0.08 h [1, 12]: 2600 ng/mL
concentration at 0.08 h [1, 13]: 2720 ng/mL
concentration at 0.08 h [1, 14]: 2400 ng/mL
concentration at 0.08 h [1, 15]: 2690 ng/mL
concentration at 0.25 h [1, 12]: 1950 ng/mL
concentration at 0.25 h [1, 13]: 2020 ng/mL
concentration at 0.25 h [1, 14]: 1920 ng/mL
concentration at 0.25 h [1, 15]: 1910 ng/mL
concentration at 0.5 h [1, 12]: 1630 ng/mL
concentration at 0.5 h [1, 13]: 1760 ng/mL
concentration at 0.5 h [1, 14]: 1390 ng/mL
concentration at 0.5 h [1, 15]: 1720 ng/mL
concentration at 1 h [1, 12]: 884 ng/mL
concentration at 1 h [1, 13]: 876 ng/mL
concentration at 1 h [1, 14]: 842 ng/mL
concentration at 1 h [1, 15]: 934 ng/mL
concentration at 2 h [1, 12]: 428 ng/mL
concentration at 2 h [1, 13]: 398 ng/mL
concentration at 2 h [1, 14]: 372 ng/mL
concentration at 2 h [1, 15]: 512 ng/mL
concentration at 4 h [1, 12]: 82.5 ng/mL
concentration at 4 h [1, 13]: 87.6 ng/mL
concentration at 4 h [1, 14]: 67.1 ng/mL
concentration at 4 h [1, 15]: 92.8 ng/mL
concentration at 8 h [1, 12]: 7.8 ng/mL
concentration at 8 h [1, 13]: 8.6 ng/mL
concentration at 8 h [1, 14]: 9.1 ng/mL
concentration at 8 h [1, 15]: 5.6 ng/mL
AUC(0-t) [1, 16]: 3030 ng·h/mL
Cmax [1, 16]: 2600 ng/mL
AUC(0-inf) [1, 16]: 3040 ng·h/mL
clearance [1, 16]: 5.5 mL/min/kg
MRT inf [1, 16]: 1.18 h
Vd [1, 16]: 0.48 L/kg
AUC(0-t) [1, 17]: 3090 ng·h/mL
Cmax [1, 17]: 2720 ng/mL
AUC(0-inf) [1, 17]: 3100 ng·h/mL
clearance [1, 17]: 5.33 mL/min/kg
MRT inf [1, 17]: 1.17 h
Vd [1, 17]: 0.49 L/kg
AUC(0-t) [1, 18]: 2740 ng·h/mL
Cmax [1, 18]: 2400 ng/mL
AUC(0-inf) [1, 18]: 2750 ng·h/mL
clearance [1, 18]: 6 mL/min/kg
MRT inf [1, 18]: 1.16 h
Vd [1, 18]: 0.53 L/kg
AUC(0-t) [1, 19]: 3270 ng·h/mL
Cmax [1, 19]: 2690 ng/mL
AUC(0-inf) [1, 19]: 3280 ng·h/mL
clearance [1, 19]: 5 mL/min/kg
MRT inf [1, 19]: 1.21 h
Vd [1, 19]: 0.41 L/kg
concentration at 2 h [1, 20]: 920 ng/mL
concentration at 2 h [1, 21]: 675 ng/mL
concentration at 2 h [1, 22]: 1280 ng/mL
concentration at 2 h [1, 23]: 801 ng/mL
concentration at 4 h [1, 20]: 1280 ng/mL
concentration at 4 h [1, 21]: 1310 ng/mL
concentration at 4 h [1, 22]: 1720 ng/mL
concentration at 4 h [1, 23]: 814 ng/mL
concentration at 8 h [1, 21]: 451 ng/mL
AUC(0-t) [1, 24]: 12400 ng·h/mL
Cmax [1, 24]: 1280 ng/mL
AUC(0-inf) [1, 24]: 12600 ng·h/mL
MRT inf [1, 24]: 6.14 h
Vd/F [1, 24]: 4.57 L/kg
AUC(0-t) [1, 25]: 10700 ng·h/mL
Cmax [1, 25]: 1310 ng/mL
AUC(0-inf) [1, 25]: 10900 ng·h/mL
MRT inf [1, 25]: 6.58 h
Vd/F [1, 25]: 5.74 L/kg
AUC(0-t) [1, 26]: 17700 ng·h/mL
Cmax [1, 26]: 1720 ng/mL
AUC(0-inf) [1, 26]: 17800 ng·h/mL
MRT inf [1, 26]: 5.87 h
Vd/F [1, 26]: 2.4 L/kg
AUC(0-t) [1, 27]: 9000 ng·h/mL
Cmax [1, 27]: 814 ng/mL
AUC(0-inf) [1, 27]: 9080 ng·h/mL
MRT inf [1, 27]: 5.96 h
Vd/F [1, 27]: 5.57 L/kg
Tmax [1, 8]: 0.08 h
Tmax [1, 9]: 4 h
half-life at 1 µM [2]: 0.745 h
microsomal CLint at 1 µM [2]: 31 µL/min/mg
half-life at 1 µM [3]: 0.412 h
microsomal CLint at 1 µM [3]: 56 µL/min/mg
